Values quoted from earlier work in patent US20090041840A1, “Positive wakeup pharmaceutical sleep system with compatible pre-bedtime administration” (priority 2003, published 2009).

How the values were obtained:
[1] = Wesensten
[2] = not given; remark: listed apart in the source

In the case of COC(=O)C(c1ccccc1)C1CCCCN1 (racemic) [methylphenidate], the “Half-life, average” value (literature sources) is listed as 2.5 h.

For CCOC(=O)c1ncn2c1CN(C)C(=O)c1cc(F)ccc1-2 [Flumazenil, ethyl 8-fluoro-5,6-dihydro-5-methyl-6-oxo-4H-imidazo(1,5a)(1,4)benzodiazepine-3-carboxylate], the “Effect in countering sleep deprivation” value [1] is listed as “ineffective”.

In the case of Cn1c(=O)c2c(ncn2C)n(C)c1=O [caffeine, 1,3,7-trimethylxanthine], the “Mean half-life in plasma” value (healthy individuals, Brachtel and Richter, Busto et al.) is listed as “about 5 hours”.

For NC(=O)C[S+]([O-])C(c1ccccc1)c1ccccc1 (centres unmarked) [modafinil], the Half-life (Wong, et al) is listed as “approximately 15 hours”.

In the case of CCN(C(C)=O)c1cccc(-c2ccnc3c(C#N)cnn23)c1 [zaleplon], the Solubility in water [2] is given as “practically insoluble”.
